Test results as given in patent US20060100431A1, “Biologically active compounds” (Amura Therapeutics Limited, priority 2002, published 2006).

How the values were obtained:
[1] = biological target: Wild-type cruzipain (Trypanosoma cruzi, UniProt P25779); assay: Trypanosoma cruzi cruzipain peptidase activity assay (Ki); assay type: biochemical; settings: read-out: Ki, inhibitors of cruzain and cruzipains
Outline: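 Native cruzipain from T. cruzi Dm28 epimastigotes, 2.5 nM, in 100 mM sodium phosphate pH 6.75 with 1 mM EDTA and 10 mM L-cysteine, 25 °C, DMSO <1%. Rates taken from continuous fluorogenic substrate read; Ki by regression assuming reversible pure-competitive inhibition.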

[2] = biological target: T1, CPB2.8ΔCTE (Leishmania mexicana, UniProt P36400); assay: Leishmania mexicana cysteine protease B (CPB) peptidase activity assay (Ki); assay type: biochemical; settings: Ki, inhibitors of Leismania mexicana CPB protease
T1 construct: Wild-type recombinant CPB without the C-terminal extention (i.e. CPB2.8ΔCTE); Dr. Jeremy Mottram (Wellcome Centre for Molecular Parasitology, University of Glasgow)
T1 sequence (P36400 126-343, stated change not applied): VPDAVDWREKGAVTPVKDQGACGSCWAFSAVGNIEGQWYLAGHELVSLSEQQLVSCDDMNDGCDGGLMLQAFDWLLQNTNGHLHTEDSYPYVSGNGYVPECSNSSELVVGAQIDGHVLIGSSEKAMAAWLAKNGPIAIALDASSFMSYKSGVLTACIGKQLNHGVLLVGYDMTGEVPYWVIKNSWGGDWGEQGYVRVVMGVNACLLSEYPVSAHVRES
Method: Unless otherwise stated, all general chemicals and biochemicals were purchased from either the Sigma Chemical Company, Poole, Dorset, U.K or from Fisher Scientific UK, Loughborough, Leicestershire, U.K. Absorbance assays were carried out in flat-bottomed 96-well plates (Spectra; Greiner Bio-One Ltd., Stonehouse, Gloucestershire, U.K.) using a SpectraMax PLUS384 plate reader (Molecular Devices, Crawley, U.K.). Fluorescence high throughput assays were carried out in either 384-well microtitre plates (Corning Costar 3705 plates, Fisher Scientific) or 96-well ‘U’ bottomed Microfluor W1 microtitre plates (Thermo Labsystems, Ashford, Middlesex, U.K.). Fluorescence assays were monitored using a SpectraMax Gemini fluorescence plate reader (Molecular Devices). For substrates employing either a 7-amino-4-methylcoumarin (AMC) or a 7-amino-4-trifluoromethylcoumarin (AFC) fluorophore, assays were monitored at an excitation wavelength of 365 nm and an emission wavelength of 450 nm and the fluorescence plate reader calibrated with AMC. For substrates employing a 3-amino-benzoyl (Abz) fluorophore, assays were monitored at an excitation wavelength of 310 nm and an emission wavelength of 445 nm; the fluorescence plate reader calibrated with 3-amino-benzamide (Fluka). Unless otherwise indicated, all the peptidase substrates were purchased from Bachem UK, St Helens, Merseyside, UK. Substrates utilizing fluorescence resonance energy transfer methodology (i.e. FRET-based substrates) were synthesized at Incenta Limited using published methods (Atherton & Sheppard, Solid Phase Peptide Synthesis, IRL Press, Oxford, U.K, 1989) and employed Abz (2-aminobenzoyl) as the fluorescence donor and 3-nitro-tyrosine [Tyr(NO2)] as the fluorescence quencher (Meldal, M. and Breddam, K., Anal. Biochem, 195, 141-147, 1991). Hydroxyethylpiperazine ethanesulfonate (HEPES), tris-hydroxylmethyl aminomethane (tris) base, bis-tris-propane and all the biological detergents (e.g. CHAPS, zwittergents, etc.) were purchased from CN Biosciences UK, Beeston, Nottinghamshire, U.K. Glycerol was purchased from Amersham Pharmacia Biotech, Little Chalfont, Buckinghamshire, U.K. Stock solutions of substrate or inhibitor were made up to 10 mM in 100% dimethylsulfoxide (DMSO) (Rathburns, Glasgow, U.K.) and diluted as appropriately required. In all cases the DMSO concentration in the assays was maintained at less than 1% (vol./vol.).
Assay protocols were based on literature precedent (Table 4; Barrett, A. J., Rawlings, N. D. and Woessner, J. F., 1998, Handbook of Proteolytic Enzymes, Academic Press, London and references therein) and modified as required to suit local assay protocols. Enzyme was added as required to initiate the reaction and the activity, as judged by the change in fluorescence upon conversion of substrate to product, was monitored over time. All assays were carried out at 25±1° C.
Wild-type recombinant CPB without the C-terminal extention (i.e. CPB2.8ΔCTE; Sanderson, S. J., et. al., Biochem. J., 347, 383-388, 2000) was obtained from Dr. Jeremy Mottram (Wellcome Centre for Molecular Parasitology, The Anderson College, University of Glasgow, Glasgow, U.K.). Activity assays were carried out in 100 mM sodium acetate; pH 5.5 containing 1 mM EDTA; 200 mM NaCl and 10 mM DTT (Alves, L. C., et. al., Mol. Biochem. Parasitol, 116, 1-9, 2001) using 0.25 nM enzyme. […] The rate of conversion of substrate to product was derived from the slope of the increase in fluorescence monitored continuously over time.
The apparent inhibition constant (Ki) for each compound was determined on the basis that inhibition was reversible and occurred by a pure-competitive mechanism. The Ki values were calculated, from the dependence of enzyme activity as a function of inhibitor concentration, by direct regression analysis (Prism v 3.02) using Equation 2 (Cornish-Bowden, A., 1995.). [formula]

Wild-type cruzipain, sequence (P25779 whole entry): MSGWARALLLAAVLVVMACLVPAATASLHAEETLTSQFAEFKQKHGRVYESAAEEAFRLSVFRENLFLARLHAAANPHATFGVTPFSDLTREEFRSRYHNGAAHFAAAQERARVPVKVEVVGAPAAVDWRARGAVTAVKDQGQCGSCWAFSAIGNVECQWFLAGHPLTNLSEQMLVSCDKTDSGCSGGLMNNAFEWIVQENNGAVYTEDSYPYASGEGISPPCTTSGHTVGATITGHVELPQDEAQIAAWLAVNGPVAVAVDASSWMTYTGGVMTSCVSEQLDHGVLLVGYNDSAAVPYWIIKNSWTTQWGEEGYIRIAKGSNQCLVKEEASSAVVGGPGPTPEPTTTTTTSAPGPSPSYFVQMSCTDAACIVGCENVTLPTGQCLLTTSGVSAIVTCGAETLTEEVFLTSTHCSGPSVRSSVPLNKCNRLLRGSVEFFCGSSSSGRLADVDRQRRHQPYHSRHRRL

Compound | Ki [1] [µM] | Ki [2] [µM]
CC(C)C[C@H](NC(=O)c1ccc(C(C)(C)C)cc1)C(=O)N1CC[C@@H]2[C@H]1C(=O)CN2C(=O)c1cccnc1 [Example 5, (3aR,6aS)-4-tert-Butyl-N-{(1S)-3-methyl-1-[6-oxo-4-(pyridine-3-carbonyl)-hexahydro-pyrrolo[3,2-b]pyrrole-1-carbonyl]-butyl}-benzamide] | < 5 | < 5
CC(C)C[C@H](NC(=O)c1ccc(C(C)(C)C)cc1)C(=O)N1CC[C@@H]2[C@H]1C(=O)CN2C(=O)c1ccncc1 [Example 6, (3aR,6aS)-4-tert-Butyl-N-{(1S)-3-methyl-1-[6-oxo-4-(pyridine-4-carbonyl)-hexahydro-pyrrolo[3,2-b]pyrrole-1-carbonyl]-butyl}-benzamide] | < 5 | < 5
CC(C)C[C@H](NC(=O)c1ccc(N(C)C)cc1)C(=O)N1CC[C@@H]2[C@H]1C(=O)CN2C(=O)c1cccnc1 [Example 21, (3aR,6aS)-4-Dimethylamino-N-{(1S)-3-methyl-1-[6-oxo-4-(pyridine-3-carbonyl)-hexahydro-pyrrolo[3,2-b]pyrrole-1-carbonyl]-butyl}-benzamide] | < 5 | < 5
CC(C)C[C@H](NC(=O)c1ccc(C(C)(C)C)cc1)C(=O)N1CC[C@@H]2[C@H]1C(=O)CN2C(=O)c1cccc(Oc2ccccc2)c1 [Example 24, (3aR,6aS)-4-tert-Butyl-N-{(1S)-3-methyl-1-[6-oxo-4-(3-phenoxy-benzoyl)-hexahydro-pyrrolo[3,2-b]pyrrole-1-carbonyl]-butyl}-benzamide] | < 5 | < 5
CC(C)C[C@H](NC(=O)c1ccc(C(C)(C)C)cc1)C(=O)N1CC[C@@H]2[C@H]1C(=O)CN2C(=O)c1cccc(Br)c1 [Example 25, (3aR,6aS)-N-{(1S)-1-[4-(3-Bromo-benzoyl)-6-oxo-hexahydro-pyrrolo[3,2-b]pyrrole-1-carbonyl]-3-methyl-butyl}-4-tert-butyl-benzamide] | < 5 | < 5
CC(C)C[C@H](NC(=O)c1ccc(C(C)(C)C)cc1)C(=O)N1CC[C@@H]2[C@H]1C(=O)CN2C(=O)c1ccc(-n2cncn2)cc1 [Example 26, (3aR,6aS)-4-tert-Butyl-N-{(1S)-3-methyl-1-[6-oxo-4-(4-[1,2,4]triazol-1-yl-benzoyl)-hexahydro-pyrrolo[3,2-b]pyrrole-1-carbonyl]-butyl}-benzamide] | < 5 | < 5
CC(C)C[C@H](NC(=O)c1ccc(C(C)(C)C)cc1)C(=O)N1CC[C@@H]2[C@H]1C(=O)CN2C(=O)C1COc2ccccc2O1 (stereo partly drawn) [Example 29, (3aR,6aS)-4-tert-Butyl-N-{(1S)-1-[4-(2,3-dihydrobenzo[1,4]dioxine-2-carbonyl)-6-oxo-hexahydro-pyrrolo[3,2-b]pyrrole-1-carbonyl]-3-methyl-butyl}-benzamide] | < 5 | < 5
CC(C)C[C@H](NC(=O)c1ccc(C(C)(C)C)cc1)C(=O)N1CC[C@@H]2[C@H]1C(=O)CN2C(=O)c1ccc2ncsc2c1 [Example 32, (3aR,6aS)-N-{(1S)-1-[4-(Benzothiazole-6-carbonyl)-6-oxo-hexahydro-pyrrolo[3,2-b]pyrrole-1-carbonyl]-3-methyl-butyl}-4-tert-butyl-benzamide] | < 5 | < 5
CC(C)C[C@H](NC(=O)c1ccc(N(C)C)cc1)C(=O)N1CC[C@@H]2[C@H]1C(=O)CN2C(=O)c1ccccc1S(C)(=O)=O [Example 42, (3aR,6aS)-4-Dimethylamino-N-{(1S)-1-[4-(2-methanesulfonyl-benzoyl)-6-oxo-hexahydro-pyrrolo[3,2-b]pyrrole-1-carbonyl]-3-methyl-butyl}-benzamide] | < 5 | < 5
CC(C)C[C@H](NC(=O)c1ccc(-c2ccccc2)s1)C(=O)N1CC[C@@H]2[C@H]1C(=O)CN2C(=O)c1ccccc1 [Example 44, (3aR,6aS)-5-Phenyl-thiophene-2-carboxylic acid [(1S)-1-(4-benzoyl-6-oxo-hexahydro-pyrrolo[3,2-b]pyrrole-1-carbonyl)-3-methyl-butyl]-amide] | < 5 | < 5
CC(C)C[C@H](NC(=O)c1ccc(N(C)C)cc1)C(=O)N1CC[C@@H]2[C@H]1C(=O)CN2C(=O)c1ccc([N+](=O)[O-])cc1 [Example 47, (3aR,6aS)-4-Dimethylamino-N-{(1S)-3-methyl-1-[4-(4-nitro-benzoyl)-6-oxo-hexahydro-pyrrolo[3,2-b]pyrrole-1-carbonyl]-butyl}-benzamide] | < 5 | < 5
CC(C)C[C@H](NC(=O)c1ccc(N(C)C)cc1)C(=O)N1CC[C@@H]2[C@H]1C(=O)CN2C(=O)c1ccc(N)cc1 [Example 50, (3aR,6aS)-N-{(1S)-1-[4-(4-Amino-benzoyl)-6-oxo-hexahydro-pyrrolo[3,2-b]pyrrole-1-carbonyl]-3-methyl-butyl}-4-dimethylamino-benzamide] | < 5 | < 5
CC(C)C[C@H](NC(=O)c1ccc(N(C)C)cc1)C(=O)N1CC[C@@H]2[C@H]1C(=O)CN2C(=O)c1ccc(Oc2ccccc2)cc1 [Example 56, (3aR,6aS)-4-Dimethylamino-N-{(1S)-3-methyl-1-[6-oxo-4-(4-phenoxy-benzoyl)-hexahydro-pyrrolo[3,2-b]pyrrole-1-carbonyl]-butyl}-benzamide] | < 5 | < 5
CC(C)C[C@H](NC(=O)c1ccc(N(C)C)cc1)C(=O)N1CC[C@@H]2[C@H]1C(=O)CN2C(=O)c1ccccc1F [Example 62, (3aR,6aS)-4-Dimethylamino-N-{(1S)-1-[4-(2-fluoro-benzoyl)-6-oxo-hexahydro-pyrrolo[3,2-b]pyrrole-1-carbonyl]-3-methyl-butyl}-benzamide] | < 5 | < 5
COc1ccccc1C(=O)N1CC(=O)[C@@H]2[C@H]1CCN2C(=O)[C@H](CC(C)C)NC(=O)c1ccc(N(C)C)cc1 [Example 64, (3aR,6aS)-4-Dimethylamino-N-{(1S)-1-[4-(2-methoxy-benzoyl)-6-oxo-hexahydro-pyrrolo[3,2-b]pyrrole-1-carbonyl]-3-methyl-butyl}-benzamide] | < 5 | < 5
COc1ccc(C(=O)N2CC(=O)[C@@H]3[C@H]2CCN3C(=O)[C@H](CC(C)C)NC(=O)c2ccc(N(C)C)cc2)cc1 [Example 66, (3aR,6aS)-4-Dimethylamino-N-{(1S)-1-[4-(4-methoxy-benzoyl)-6-oxo-hexahydro-pyrrolo[3,2-b]pyrrole-1-carbonyl]-3-methyl-butyl}-benzamide] | < 5 | < 5
CC(C)C[C@H](NC(=O)c1ccc(N(C)C)cc1)C(=O)N1CC[C@@H]2[C@H]1C(=O)CN2C(=O)c1ccc(C(F)(F)F)cc1 [Example 69, (3aR,6aS)-4-Dimethylamino-N-{(1S)-3-methyl-1-[6-oxo-4-(4 trifluoromethyl-benzoyl)-hexahydro-pyrrolo[3,2-b]pyrrole-1-carbonyl]-butyl}-benzamide] | < 5 | < 5
CC(C)C[C@H](NC(=O)c1ccc(N(C)C)cc1)C(=O)N1CC[C@@H]2[C@H]1C(=O)CN2C(=O)c1cccc(OC(F)(F)F)c1 [Example 70, (3aR,6aS)-4-Dimethylamino-N-{(1S)-3-methyl-1-[6-oxo-4-(3-trifluoromethoxy-benzoyl)-hexahydro-pyrrolo[3,2-b]pyrrole-1-carbonyl]-butyl}-benzamide] | < 5 | < 5
